Experimental data reported in patent US20260053811A1, “METHODS OF TREATING HYPERTENSION IN OBESE SUBJECTS” (Mineralys Therapeutics, Inc., priority 2022, published 2026).

Test system: hypertensive subjects
Assay: Seated automated office blood pressure (AOBP) in randomized, placebo-controlled, dose-ranging study
Assay type: in vivo, human
Details: Part 1, 50 mg QD
Description: A randomized, double-blinded, placebo-controlled, dose-ranging, multicenter study was conducted to evaluate the effect of orally administered Compound A HBr on blood pressure for the treatment of hypertension in male and female subjects ≥18 years of age.
The study consists of two parts. For enrollment into Part 1 of the study, a subject's value of plasma renin activity (PRA) must be ≤1 ng/mL/h based on morning measurement. If the value of PRA >1 ng/mL/h based on morning measurement, then subjects may be eligible to enter Part 2 of the study.
For Part 1, 163 enrolled subjects ≥18 years of age were randomized into 6 equal treatment groups (1:1:1:1:1:1) to 12.5 mg BID, 25 mg BID, 12.5 mg QD, 50 mg QD, 100 mg QD, or placebo. After a review of interim clinical data, the 2 lowest dose levels (12.5 mg QD and 12.5 mg BID) were stopped for future randomization due to a lack of consistent meaningful reduction of blood pressure, but the patients randomized to that point remained in the study through completion. Thus, after the review of interim clinical data, subjects were randomized into 4 equal treatment groups (1:1:1:1) to 25 mg BID, 50 mg QD, 100 mg QD, or placebo.
For Part 2, 36 enrolled subjects ≥18 years of age were randomized (5:1) to either 100 mg QD Compound A HBr or placebo such that the Compound A HBr treatment group consisted of approximately 30 subjects and the placebo treatment group will consist of approximately 6 subjects.
Subjects orally administered the assigned study drug (Compound A HBr or placebo) according to the assigned dosing regimen for 8 weeks beginning on Study Day 1. All subjects in Part 1 (regardless of dosing group) received BID dosing to preserve the integrity of the blind; active drug is administered as the morning dose for all QD dose groups. Subjects returned to the research facility or were seen by the clinical investigator or approved home health care professional at the end of Study Weeks 1, 2, 3, 4, 5, 6, 7, and 8 (±2 days) for protocol-defined efficacy and safety assessments and procedures, assessment of adverse events (AEs), and confirmation of compliance with study drug usage. Subjects also completed a telephone visit and blood pressure (BP) check at home approximately 3 days post last dose of study drug. Subjects attended up to 14 full clinic visits, including a pre-Screening visit, a Screening/start of Placebo Run-in visit, a second visit during Placebo Run-in, a clinic visit to initiate the ABPM procedure, a Randomization visit, 8 weekly visits during double-blind treatment, and an end-of-study visit scheduled 4 weeks after the last study treatment for final efficacy and safety assessments.
An automated oscillometric sphygmomanometer device was used to measure the subjects' systolic and diastolic blood pressure in office after approximately 5 minutes of rest in the seated position.
The primary endpoint is the change in office-measured (mean of last 2 of 5 unattended measurements using an automated oscillometric sphygmomanometer device after approximately 5 minutes of rest in the seated position) systolic blood pressure (SBP) from baseline to the end of Study Week 8.
Secondary endpoints of this study were: • (a) Change in 24-hour ambulatory blood pressure monitoring (ABPM) parameters (systolic and diastolic) from baseline to the end of Study Week 7. • (b) Change in office-measured SBP from baseline to the end of Study Weeks 1, 2, 3, 4, 5, 6, and 7. • (c) Change in office-measured diastolic blood pressure (DBP) from baseline to the end of Study Weeks 1, 2, 3, 4, 5, 6, 7, and 8. • (d) Proportion of subjects who achieve office-measured BP of ≤130/80 mm Hg by the end of Study Week 8.

Structure (SMILES): CC(=O)N[C@H]1CC[C@H](NC(=O)CN2CCN(c3nncc(-c4ccc(C)cc4)n3)CC2)CC1 [Compound A HBr]
- Mean (SD) Change from Baseline at Week 8 in Automated Office-Measured Systolic Blood Pressure (ACEi/ARB Yes): −15.75 (17.46) mmHg
- Mean (SD) Automated Office-Measured Diastolic Blood Pressure at Wk 8 (ACEi/ARBs No): 78.75 (13.72) mmHg
- Mean (SD) Change from Baseline at Week 8 in Automated Office-Measured Diastolic Blood Pressure (ACEi/ARBs No): −4.44 (10.67) mmHg
- Mean (SD) Automated Office-Measured Diastolic Blood Pressure at Wk 8 (ACEi/ARBs Yes): 76.05 (8.09) mmHg
- Mean (SD) Change from Baseline at Week 8 in Automated Office-Measured Diastolic Blood Pressure (ACEi/ARBs Yes): −9.50 (8.30) mmHg
- Mean (SD) Automated Office-Measured Diastolic Blood Pressure at Wk 8 (AHTs 2): 76.40 (10.12) mmHg
- Mean (SD) Automated Office-Measured Systolic Blood Pressure at Wk 8 (AHTs 2): 129.60 (13.98) mmHg
- Mean (SD) Change from Baseline at Week 8 in Automated Office-Measured Diastolic Blood Pressure (AHTs 2): −7.03 (9.50) mmHg
- Mean (SD) Change from Baseline at Week 8 in Automated Office-Measured Systolic Blood Pressure (AHTs 2): −10.28 (15.34) mmHg
- Mean (SD) Automated Office-Measured Diastolic Blood Pressure at Wk 8 (AHTs ≥3): 77.88 (9.58) mmHg
- Mean (SD) Automated Office-Measured Systolic Blood Pressure at Wk 8 (AHTs ≥3): 126.25 (13.56) mmHg
- Mean (SD) Change from Baseline at Week 8 in Automated Office-Measured Diastolic Blood Pressure (AHTs ≥3): −10.63 (8.12) mmHg
- Mean (SD) Change from Baseline at Week 8 in Automated Office-Measured Systolic Blood Pressure (AHTs ≥3): −20.44 (20.36) mmHg
- Mean (SD) Automated Office-Measured Diastolic Blood Pressure at Wk 8 (Age 65-79 yr): 72.54 (8.04) mmHg
- Mean (SD) Automated Office-Measured Systolic Blood Pressure at Wk 8 (Age 65-79 yr): 127.92 (13.82) mmHg
- Mean (SD) Change from Baseline at Week 8 in Automated Office-Measured Diastolic Blood Pressure (Age 65-79 yr): −8.88 (9.23) mmHg
- Mean (SD) Change from Baseline at Week 8 in Automated Office-Measured Systolic Blood Pressure (Age 65-79 yr): −15.15 (18.27) mmHg
- Mean (SD) Automated Office-Measured Diastolic Blood Pressure at Wk 8 (Age <65 yr): 80.53 (9.93) mmHg
- Mean (SD) Automated Office-Measured Systolic Blood Pressure at Wk 8 (Age <65 yr): 129.27 (14.04) mmHg
- Mean (SD) Change from Baseline at Week 8 in Automated Office-Measured Diastolic Blood Pressure (Age <65 yr): −7.33 (9.30) mmHg
- Mean (SD) Change from Baseline at Week 8 in Automated Office-Measured Systolic Blood Pressure (Age <65 yr): −11.47 (16.60) mmHg
- Mean (SD) Automated Office-Measured Diastolic Blood Pressure at Wk 8 (BMI 25−30 kg/m^2): 80.27 (6.29) mmHg
- Mean (SD) Change from Baseline at Week 8 in Automated Office-Measured Diastolic Blood Pressure (BMI 25−30 kg/m^2): −4.50 (8.75) mmHg
- Mean (SD) Automated Office-Measured Diastolic Blood Pressure at Wk 8 (BMI <25 kg/m^2): 61.00 (NE) mmHg
- Mean (SD) Change from Baseline at Week 8 in Automated Office-Measured Diastolic Blood Pressure (BMI <25 kg/m^2): −24.50 (NE) mmHg
- Mean (SD) Automated Office-Measured Diastolic Blood Pressure at Wk 8 (BMI >30 kg/m^2): 76.07 (11.02) mmHg
- Mean (SD) Change from Baseline at Week 8 in Automated Office-Measured Diastolic Blood Pressure (BMI >30 kg/m^2): −9.67 (8.59) mmHg
- Mean (SD) Automated Office-Measured Systolic Blood Pressure at Wk 8 (BMI at baseline 25-30 kg/m^2): 136.64 (14.70) mmHg
- Mean (SD) Change from Baseline at Week 8 in Automated Office-Measured Systolic Blood Pressure (BMI at baseline 25-30 kg/m^2): −2.45 (15.21) mmHg
- Mean (SD) Automated Office-Measured Systolic Blood Pressure at Wk 8 (BMI at baseline <25 kg/m^2): 118.00 (NE) mmHg
- Mean (SD) Change from Baseline at Week 8 in Automated Office-Measured Systolic Blood Pressure (BMI at baseline <25 kg/m^2): −38.00 (NE) mmHg
- Mean (SD) Automated Office-Measured Systolic Blood Pressure at Wk 8 (BMI at baseline >30 kg/m^2): 124.13 (10.98) mmHg
- Mean (SD) Change from Baseline at Week 8 in Automated Office-Measured Systolic Blood Pressure (BMI at baseline >30 kg/m^2): −19.27 (15.13) mmHg
- Mean (SD) Automated Office-Measured Diastolic Blood Pressure at Wk 8 (Race Black or AA): 83.25 (8.88) mmHg
- Mean (SD) Automated Office-Measured Systolic Blood Pressure at Wk 8 (Race Black or AA): 130.38 (14.12) mmHg
- Mean (SD) Change from Baseline at Week 8 in Automated Office-Measured Diastolic Blood Pressure (Race Black or AA): −4.88 (8.84) mmHg
- Mean (SD) Change from Baseline at Week 8 in Automated Office-Measured Systolic Blood Pressure (Race Black or AA): −12.31 (18.13) mmHg
- Mean (SD) Automated Office-Measured Diastolic Blood Pressure at Wk 8 (Race Other): 74.25 (9.14) mmHg
- Mean (SD) Automated Office-Measured Systolic Blood Pressure at Wk 8 (Race Other): 127.95 (13.83) mmHg
- Mean (SD) Change from Baseline at Week 8 in Automated Office-Measured Diastolic Blood Pressure (Race Other): −9.33 (9.15) mmHg
- Mean (SD) Change from Baseline at Week 8 in Automated Office-Measured Systolic Blood Pressure (Race Other): −13.53 (17.25) mmHg
- Mean (SD) Automated Office-Measured Diastolic Blood Pressure at Wk 8 (Seated SBP Tertile High): 73.25 (8.33) mmHg
- Mean (SD) Change from Baseline at Week 8 in Automated Office-Measured Diastolic Blood Pressure (Seated SBP Tertile High): −13.94 (7.82) mmHg
- Mean (SD) Automated Office-Measured Diastolic Blood Pressure at Wk 8 (Seated SBP Tertile Low): 81.08 (9.65) mmHg
- Mean (SD) Change from Baseline at Week 8 in Automated Office-Measured Diastolic Blood Pressure (Seated SBP Tertile Low): 2.42 (8.22) mmHg
- Mean (SD) Automated Office-Measured Diastolic Blood Pressure at Wk 8 (Seated SBP Tertile Middle): 74.00 (10.06) mmHg
